According to US20260232759A1, “PEPTIDES THAT INHIBIT INFECTION BY SARS-COV-2, THE VIRUS THAT CAUSES COVID-19 DISEASE” (Wisconsin Alumni Research Foundation, priority 2021, published 2026):
pIC50: −log10 of the molar value. Read-outs that look alike come from different tables or passages of the source. Starred links: 1 amine or outer side, 2 acyl side, 3 side chain; linkers in the order of their positions; H or OH if unused. Non-standard residues stand in square brackets, D forms with d. Residues, ends and D or L forms follow the SMILES beside them. *: point of attachment. X2 = CC(C)CCC[C@@H](C)[C@H]1CC[C@H]2[C@@H]3CC=C4C[C@@H](OC(=O)CCOCCOCCOCCOCCNC(=O)C*)CC[C@]4(C)[C@H]3CC[C@]12C; X1 = O=C([C@H]1CNC[C@@H]1N[*:1])[*:2]; β3hE = N[C@@H](CCC(=O)O)CC(=O)O; β3hQ = NC(=O)CC[C@H](N)CC(=O)O; β3hD = NC(CC(=O)O)CC(=O)O

Key:
[1] = Solubility of the peptides; format: physicochemical
[2] = target: T1, SARS-CoV-2 S (Severe acute respiratory syndrome coronavirus 2, UniProt P0DTC2); assay: β-Gal complementation-based cell-cell fusion assay (S-protein-mediated fusion)
T1 construct: expressed in transfected cells

[3] = IC50, inhibition of S-mediated fusion

CC[C@H](C)[C@H](NC(=O)[C@H](C)NC(=O)[C@H](CCC(=O)O)NC(=O)[C@H](CCC(=O)O)NC(=O)[C@H](CC(C)C)NC(=O)[C@H](CCCCN)NC(=O)[C@H](CCCCN)NC(=O)[C@H](CCSC)NC(=O)[C@H](CCC(=O)O)NC(=O)[C@H](Cc1ccc(O)cc1)NC(=O)[C@H](CCC(=O)O)NC(=O)[C@H](CC(C)C)NC(=O)[C@H](CC(=O)O)NC(=O)[C@H](CC(C)C)NC(=O)[C@H](Cc1ccccc1)NC(=O)[C@@H](NC(=O)[C@@H](NC(=O)[C@H](CC(N)=O)NC(=O)[C@@H](NC(=O)[C@H](CCC(N)=O)NC(=O)[C@H](CC(=O)O)NC(=O)[C@H](CC(C)C)NC(=O)[C@@H](N)CO)[C@@H](C)CC)C(C)C)[C@@H](C)O)C(=O)N[C@@H](CCCCN)C(=O)N[C@@H](CCCCN)C(=O)N[C@@H](CC(C)C)C(=O)N[C@@H](CCC(=O)O)C(=O)N[C@@H](CCC(=O)O)C(=O)N[C@@H](CO)C(=O)N[C@@H](Cc1ccc(O)cc1)C(=O)N[C@H](C(=O)N[C@@H](CC(=O)O)C(=O)N[C@@H](CC(C)C)C(=O)N[C@@H](CCCCN)C(=O)N[C@@H](CCC(=O)O)C(=O)N[C@@H](CC(C)C)C(N)=O)[C@@H](C)CC [EK1]
solubility (in words) [1]: improved solubility

Ac-[β3hD]IS[β3hQ]INASVVNIEYEIKKLEEVAKKLEESLI[β3hD]LQ[β3hE]LGSGSGC(X2)-NH2 [D1 Q4 D32 E35]
pIC50 [2, 3]: ~7.30

Ac-DISQINASVVNIEYEI[X1]KLE[β3hE]VA[X1]KLE[β3hE]SLIDLQELGSGSGC(X2)-NH2 [Bf APC/B3E]
pIC50 ([2]; […], cell-cell fusion assay, peptides with poly(ethylene glycol)-cholesterol tail, read-out: IC50, inhibition of S-mediated fusion): ~7.30

Ac-[β3hD]IS[β3hQ]INASVVNIEYEIKKLEEVAKKLEESLI[β3hD]L[β3hQ]ELGSGSGC(X2)-NH2 [D1 Q4 D32 Q34]
pIC50 [2, 3]: ~8.00

CC[C@H](C)[C@H](NC(=O)[C@H](CCC(N)=O)NC(=O)[C@H](CO)NC(=O)[C@@H](NC(=O)[C@@H](N)CC(=O)O)[C@@H](C)CC)C(=O)N[C@@H](CC(N)=O)C(=O)N[C@@H](C)C(=O)N[C@@H](CO)C(=O)N[C@H](C(=O)N[C@H](C(=O)N[C@@H](CC(N)=O)C(=O)N[C@H](C(=O)N[C@@H](CCC(=O)O)C(=O)N[C@@H](Cc1ccc(O)cc1)C(=O)N[C@@H](CCC(=O)O)C(=O)N[C@H](C(=O)N[C@@H](CCCCN)C(=O)N[C@@H](CCCCN)C(=O)N[C@@H](CC(C)C)C(=O)N[C@@H](CCC(=O)O)C(=O)N[C@@H](CCC(=O)O)C(=O)N[C@H](C(=O)N[C@@H](C)C(=O)N[C@@H](CCCCN)C(=O)N[C@@H](CCCCN)C(=O)N[C@@H](CC(C)C)C(=O)N[C@@H](CCC(=O)O)C(=O)N[C@@H](CCC(=O)O)C(=O)N[C@@H](CO)C(=O)N[C@@H](CC(C)C)C(=O)N[C@H](C(=O)N[C@@H](CC(=O)O)C(=O)N[C@@H](CC(C)C)C(=O)N[C@@H](CCC(N)=O)C(=O)N[C@@H](CCC(=O)O)C(=O)N[C@@H](CC(C)C)C(N)=O)[C@@H](C)CC)C(C)C)[C@@H](C)CC)[C@@H](C)CC)C(C)C)C(C)C [Peptide 1] (H-DISQINASVVNIEYEIKKLEEVAKKLEESLIDLQEL-NH2; N-terminus and C-terminus assumed)
solubility (in words) [1]: improved solubility
